Reference: patent publication US9326506B2, “Preparation method, agricultural composition and applications of natural brassinolide analogs” (CHENGDU NEWSUN CROPSCIENCE CO., LTD, priority 2012, dated 2016)

Tested on: rice
Experiment: Low temperature assay on rice seedlings
Type: in vivo
Experimental: According to a low temperature assay, we measured parameters including plant height, number of leaf, area of leaf, number of tiller, weight of root at low temperature to completely determine effects of the natural brassinolide analogues on the resistance to low temperature of a plant.
The natural brassinolide analogues, BR1, BR2, BR3, BR4, BR5 and BR6, used herein, were those prepared by the method of Example 1. Respectively the analogues were dissolved into 95% (V/V) ethanol solution, and then diluted with pure water to 1 mg/L, 0.1 mg/L, 0.01 mg/L, 0.001 mg/L and 0.0001 mg/L. In addition, pure water was used as a control.
After rice seeds were disinfected by using 5% sodium hypochlorite solution treatment, they were rinsed with distilled water until their pH>7, placed into a petri dish in a dark incubator, and cultured by using water at 30° C.±2° C. for 9 days. Then respectively the nine-day-old etiolated seedlings of rice were immersed in the above solutions containing different concentrations of the natural brassinolide analogues or pure water, and cultured at the temperature of 1° C., 2° C., 3° C., 4° C. and 5° C. for 24 hr. The parameters including plant height, area of leaf and weight of root after 3, 6, 9 and 12 days and number of leaf and number of tiller after 12 days were measured.

CC[C@@H](C(C)C)[C@@H](O)[C@H](O)[C@@H](C)[C@H]1CCC2C3COC(=O)C4C[C@H](O)[C@H](O)C[C@]4(C)C3CC[C@@]21C (stereo partly shown) [BR2]
7.4 cm: Height (0.0001 mg/l, 2 °C, 12 days) | Height (0.0001 mg/l, 3 °C, 9 days) | Height (0.0001 mg/l, 5 °C, 6 days) | Height (0.001 mg/l, 3 °C, 12 days) | Height (0.01 mg/l, 1 °C, 9 days)
12.1 cm^2: Area of leaf (0.001 mg/l, 2 °C, 9 days) | Area of leaf (0.001 mg/l, 4 °C, 6 days)
12.3 cm^2: Area of leaf (0.0001 mg/l, 3 °C, 9 days)
13.5 cm^2: Area of leaf (0.001 mg/l, 4 °C, 12 days)
7 cm: Height (0.0001 mg/l, 1 °C, 9 days) | Height (0.0001 mg/l, 2 °C, 6 days) | Height (0.001 mg/l, 3 °C, 3 days)
3.2 g: Weight of root (0.0001 mg/l, 2 °C, 9 days) | Weight of root (0.001 mg/l, 2 °C, 9 days) | Weight of root (0.01 mg/l, 2 °C, 12 days)
11.2 cm^2: Area of leaf (0.0001 mg/l, 1 °C, 6 days)
7.6 cm: Height (0.0001 mg/l, 4 °C, 12 days)
10.2 cm^2: Area of leaf (0.0001 mg/l, 5 °C, 3 days) | Area of leaf (0.001 mg/l, 5 °C, 3 days) | Area of leaf (0.01 mg/l, 3 °C, 3 days)
6.9 cm: Height (0.0001 mg/l, 1 °C, 6 days) | Height (0.0001 mg/l, 3 °C, 3 days) | Height (0.0001 mg/l, 4 °C, 3 days) | Height (0.001 mg/l, 1 °C, 3 days) | Height (0.001 mg/l, 2 °C, 3 days)
14 cm^2: Area of leaf (0.0001 mg/l, 5 °C, 12 days) | Area of leaf (0.001 mg/l, 5 °C, 6 days)
13.4 cm^2: Area of leaf (0.0001 mg/l, 4 °C, 12 days) | Area of leaf (0.01 mg/l, 2 °C, 12 days)
15.4 cm^2: Area of leaf (0.001 mg/l, 5 °C, 9 days)
11.1 cm^2: Area of leaf (0.01 mg/l, 2 °C, 6 days)
8 cm: Height (0.001 mg/l, 5 °C, 12 days)
3.7 g: Weight of root (0.001 mg/l, 5 °C, 12 days)
2.6 g: Weight of root (0.0001 mg/l, 3 °C, 6 days) | Weight of root (0.0001 mg/l, 4 °C, 6 days) | Weight of root (0.001 mg/l, 3 °C, 6 days) | Weight of root (0.001 mg/l, 4 °C, 6 days) | Weight of root (0.01 mg/l, 3 °C, 6 days)
2.5 g: Weight of root (0.0001 mg/l, 3 °C, 3 days) | Weight of root (0.0001 mg/l, 4 °C, 3 days) | Weight of root (0.0001 mg/l, 5 °C, 3 days) | Weight of root (0.001 mg/l, 3 °C, 3 days) | Weight of root (0.001 mg/l, 4 °C, 3 days) | Weight of root (0.01 mg/l, 3 °C, 3 days)
7.7 cm: Height (0.0001 mg/l, 5 °C, 12 days)
7.0 cm: Height (0.0001 mg/l, 5 °C, 3 days) | Height (0.01 mg/l, 1 °C, 3 days)
13.1 cm^2: Area of leaf (0.0001 mg/l, 1 °C, 12 days) | Area of leaf (0.001 mg/l, 2 °C, 12 days)
10.1 cm^2: Area of leaf (0.001 mg/l, 1 °C, 3 days) | Area of leaf (0.01 mg/l, 1 °C, 3 days) | Area of leaf (0.01 mg/l, 2 °C, 3 days)
10 cm^2: Area of leaf (0.0001 mg/l, 2 °C, 3 days) | Area of leaf (0.0001 mg/l, 3 °C, 3 days) | Area of leaf (0.0001 mg/l, 4 °C, 3 days) | Area of leaf (0.001 mg/l, 3 °C, 3 days) | Area of leaf (0.001 mg/l, 4 °C, 3 days)
7.3 cm: Height (0.0001 mg/l, 4 °C, 6 days) | Height (0.001 mg/l, 1 °C, 12 days) | Height (0.001 mg/l, 2 °C, 12 days) | Height (0.001 mg/l, 3 °C, 9 days) | Height (0.001 mg/l, 4 °C, 6 days)
9.8 cm^2: Area of leaf (0.0001 mg/l, 1 °C, 3 days) | Area of leaf (0.001 mg/l, 2 °C, 3 days)
3: Number of leaf (0.0001 mg/l, 1 °C, 12 days) | Number of tiller (0.0001 mg/l, 1 °C, 12 days) | Number of leaf (0.0001 mg/l, 2 °C, 12 days) | Number of tiller (0.0001 mg/l, 2 °C, 12 days) | Number of leaf (0.0001 mg/l, 3 °C, 12 days) | Number of leaf (0.0001 mg/l, 4 °C, 12 days) | Number of leaf (0.0001 mg/l, 5 °C, 12 days) | Number of leaf (0.001 mg/l, 1 °C, 12 days) | Number of tiller (0.001 mg/l, 1 °C, 12 days) | Number of leaf (0.001 mg/l, 2 °C, 12 days) | Number of tiller (0.001 mg/l, 2 °C, 12 days) | Number of leaf (0.001 mg/l, 3 °C, 12 days) | Number of leaf (0.001 mg/l, 4 °C, 12 days) | Number of leaf (0.001 mg/l, 5 °C, 12 days) | Number of tiller (0.001 mg/l, 5 °C, 12 days) | Number of leaf (0.01 mg/l, 1 °C, 12 days) | Number of tiller (0.01 mg/l, 1 °C, 12 days) | Number of leaf (0.01 mg/l, 2 °C, 12 days) | Number of tiller (0.01 mg/l, 2 °C, 12 days)
11.6 cm^2: Area of leaf (0.001 mg/l, 2 °C, 6 days) | Area of leaf (0.01 mg/l, 1 °C, 6 days)
16 cm^2: Area of leaf (0.001 mg/l, 5 °C, 12 days)
2.7 g: Weight of root (0.0001 mg/l, 5 °C, 6 days)
12.4 cm^2: Area of leaf (0.0001 mg/l, 1 °C, 9 days) | Area of leaf (0.0001 mg/l, 2 °C, 9 days) | Area of leaf (0.001 mg/l, 3 °C, 9 days) | Area of leaf (0.01 mg/l, 1 °C, 9 days)
6.8 cm: Height (0.0001 mg/l, 1 °C, 3 days) | Height (0.0001 mg/l, 2 °C, 3 days)
2.8 g: Weight of root (0.0001 mg/l, 1 °C, 3 days) | Weight of root (0.0001 mg/l, 2 °C, 3 days) | Weight of root (0.001 mg/l, 1 °C, 3 days) | Weight of root (0.001 mg/l, 2 °C, 3 days) | Weight of root (0.001 mg/l, 5 °C, 3 days) | Weight of root (0.01 mg/l, 1 °C, 3 days) | Weight of root (0.01 mg/l, 2 °C, 3 days)
12.5 cm^2: Area of leaf (0.01 mg/l, 2 °C, 9 days)
7.5 cm: Height (0.0001 mg/l, 3 °C, 12 days) | Height (0.0001 mg/l, 4 °C, 9 days) | Height (0.0001 mg/l, 5 °C, 9 days) | Height (0.001 mg/l, 4 °C, 9 days) | Height (0.001 mg/l, 4 °C, 12 days) | Height (0.001 mg/l, 5 °C, 6 days) | Height (0.01 mg/l, 1 °C, 12 days) | Height (0.01 mg/l, 2 °C, 9 days) | Height (0.01 mg/l, 2 °C, 12 days)
3.9 g: Weight of root (0.0001 mg/l, 1 °C, 12 days) | Weight of root (0.0001 mg/l, 2 °C, 12 days) | Weight of root (0.001 mg/l, 1 °C, 12 days) | Weight of root (0.001 mg/l, 2 °C, 12 days) | Weight of root (0.01 mg/l, 1 °C, 12 days)
11.3 cm^2: Area of leaf (0.001 mg/l, 1 °C, 6 days)
13 cm^2: Area of leaf (0.0001 mg/l, 2 °C, 12 days) | Area of leaf (0.0001 mg/l, 4 °C, 9 days) | Area of leaf (0.001 mg/l, 1 °C, 12 days) | Area of leaf (0.001 mg/l, 3 °C, 12 days) | Area of leaf (0.001 mg/l, 4 °C, 9 days)
3.4 g: Weight of root (0.0001 mg/l, 1 °C, 9 days) | Weight of root (0.001 mg/l, 1 °C, 9 days) | Weight of root (0.01 mg/l, 1 °C, 9 days)
3.1 g: Weight of root (0.0001 mg/l, 1 °C, 6 days) | Weight of root (0.001 mg/l, 1 °C, 6 days) | Weight of root (0.01 mg/l, 2 °C, 6 days) | Weight of root (0.01 mg/l, 2 °C, 9 days)
13.6 cm^2: Area of leaf (0.0001 mg/l, 5 °C, 9 days) | Area of leaf (0.01 mg/l, 1 °C, 12 days)
7.2 cm: Height (0.0001 mg/l, 1 °C, 12 days) | Height (0.0001 mg/l, 3 °C, 6 days) | Height (0.001 mg/l, 5 °C, 3 days) | Height (0.01 mg/l, 1 °C, 6 days) | Height (0.01 mg/l, 2 °C, 6 days) | Height (0.01 mg/l, 3 °C, 6 days)
11.7 cm^2: Area of leaf (0.0001 mg/l, 2 °C, 6 days) | Area of leaf (0.0001 mg/l, 4 °C, 6 days)
7.8 cm: Height (0.001 mg/l, 5 °C, 9 days)
2: Number of tiller (0.0001 mg/l, 3 °C, 12 days) | Number of tiller (0.0001 mg/l, 4 °C, 12 days) | Number of tiller (0.0001 mg/l, 5 °C, 12 days) | Number of tiller (0.001 mg/l, 3 °C, 12 days) | Number of tiller (0.001 mg/l, 4 °C, 12 days)
12 cm^2: Area of leaf (0.0001 mg/l, 5 °C, 6 days) | Area of leaf (0.001 mg/l, 3 °C, 6 days) | Area of leaf (0.01 mg/l, 3 °C, 6 days)
11.8 cm^2: Area of leaf (0.0001 mg/l, 3 °C, 6 days)
2.9 g: Weight of root (0.0001 mg/l, 3 °C, 9 days) | Weight of root (0.0001 mg/l, 3 °C, 12 days) | Weight of root (0.0001 mg/l, 4 °C, 9 days) | Weight of root (0.0001 mg/l, 4 °C, 12 days) | Weight of root (0.0001 mg/l, 5 °C, 9 days) | Weight of root (0.001 mg/l, 3 °C, 9 days) | Weight of root (0.001 mg/l, 3 °C, 12 days) | Weight of root (0.001 mg/l, 4 °C, 9 days) | Weight of root (0.001 mg/l, 4 °C, 12 days) | Weight of root (0.001 mg/l, 5 °C, 6 days)
3.0 g: Weight of root (0.0001 mg/l, 2 °C, 6 days) | Weight of root (0.0001 mg/l, 5 °C, 12 days) | Weight of root (0.001 mg/l, 2 °C, 6 days) | Weight of root (0.001 mg/l, 5 °C, 9 days) | Weight of root (0.01 mg/l, 1 °C, 6 days)
7.1 cm: Height (0.0001 mg/l, 2 °C, 9 days) | Height (0.001 mg/l, 1 °C, 6 days) | Height (0.001 mg/l, 1 °C, 9 days) | Height (0.001 mg/l, 2 °C, 6 days) | Height (0.001 mg/l, 2 °C, 9 days) | Height (0.001 mg/l, 3 °C, 6 days) | Height (0.001 mg/l, 4 °C, 3 days) | Height (0.01 mg/l, 2 °C, 3 days) | Height (0.01 mg/l, 3 °C, 3 days)
12.6 cm^2: Area of leaf (0.001 mg/l, 1 °C, 9 days) | Area of leaf (0.01 mg/l, 3 °C, 9 days)
13.2 cm^2: Area of leaf (0.0001 mg/l, 3 °C, 12 days)
